# Laboratory results from ChEMBL document CHEMBL1134984, “Anticancer activity for 4,4'-dihydroxybenzophenone-2,4-dinitrophenylhydrazone (A-007) analogues and their abilities to interact with lymphoendothelial cell surface markers” (Bioorg Med Chem Lett, 2002).
# Activity calls are given as the source filed them. The calls are words filed in the database; no cut-off is given here.
# How the values were obtained:
# [1] = target: T-cell surface glycoprotein CD4 (Homo sapiens) (UniProt P01730); assay: Binding Intensity against CD4+ HH-leukemic cells at 5 ug/mL.; assay type: cell-based
# [2] = target: T1, Receptor-type tyrosine-protein phosphatase C (Homo sapiens) (UniProt P08575); assay: Binding Intensity was determined against CD45+ HH-leukemic cells at 5 ug/mL; No change; assay type: cell-based
# T1 sequence (whole entry): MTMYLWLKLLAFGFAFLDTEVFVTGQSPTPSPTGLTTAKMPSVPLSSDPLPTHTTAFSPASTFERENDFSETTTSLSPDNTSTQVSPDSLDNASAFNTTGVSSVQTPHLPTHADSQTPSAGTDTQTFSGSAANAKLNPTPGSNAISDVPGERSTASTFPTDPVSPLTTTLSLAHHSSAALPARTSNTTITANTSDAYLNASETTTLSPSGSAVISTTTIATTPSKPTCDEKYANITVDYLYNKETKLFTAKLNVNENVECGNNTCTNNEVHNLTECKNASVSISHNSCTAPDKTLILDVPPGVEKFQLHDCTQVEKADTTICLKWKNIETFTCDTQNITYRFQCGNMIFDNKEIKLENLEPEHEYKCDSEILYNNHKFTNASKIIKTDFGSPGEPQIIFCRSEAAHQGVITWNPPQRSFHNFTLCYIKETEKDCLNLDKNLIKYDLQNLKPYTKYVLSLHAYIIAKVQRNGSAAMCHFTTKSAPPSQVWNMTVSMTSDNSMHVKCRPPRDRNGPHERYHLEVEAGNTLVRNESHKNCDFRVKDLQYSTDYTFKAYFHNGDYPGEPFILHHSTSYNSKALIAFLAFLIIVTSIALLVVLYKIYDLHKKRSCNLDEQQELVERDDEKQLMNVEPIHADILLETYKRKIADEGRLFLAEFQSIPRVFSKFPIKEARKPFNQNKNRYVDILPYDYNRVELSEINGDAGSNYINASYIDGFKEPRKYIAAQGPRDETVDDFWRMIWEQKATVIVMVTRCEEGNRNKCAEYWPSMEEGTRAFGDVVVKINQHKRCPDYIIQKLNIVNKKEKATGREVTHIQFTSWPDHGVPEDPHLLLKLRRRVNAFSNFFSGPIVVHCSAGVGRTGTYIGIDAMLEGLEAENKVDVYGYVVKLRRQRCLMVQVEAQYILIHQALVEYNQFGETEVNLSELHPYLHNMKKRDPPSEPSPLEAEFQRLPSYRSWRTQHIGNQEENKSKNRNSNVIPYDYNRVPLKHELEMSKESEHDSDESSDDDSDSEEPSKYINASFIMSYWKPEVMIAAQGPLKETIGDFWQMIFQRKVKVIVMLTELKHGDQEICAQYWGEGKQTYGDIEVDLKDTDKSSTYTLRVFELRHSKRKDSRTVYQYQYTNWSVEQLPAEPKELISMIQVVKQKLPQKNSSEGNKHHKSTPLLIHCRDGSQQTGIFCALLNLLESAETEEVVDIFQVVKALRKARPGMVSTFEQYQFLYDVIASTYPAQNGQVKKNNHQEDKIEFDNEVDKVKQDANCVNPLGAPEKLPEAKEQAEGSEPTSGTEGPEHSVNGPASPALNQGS
# HH-leukemic [3] = assay: Binding Intensity against CD11C+ HH-leukemic cells at 5 ug/mL.; assay type: cell-based; conditions: Homo sapiens
# T-cell = assay: Cytotoxicity in HH T-lymphocytic leukemia cells; assay type: functional, cell-based; conditions: Homo sapiens
# [4] = target: T1, Receptor-type tyrosine-protein phosphatase C (Homo sapiens); assay: Binding Intensity against CD45+ HH-leukemic cells at 5 ug/mL; assay type: cell-based
# HH-leukemic [5] = assay: Binding Intensity against CD11C+ HH-leukemic cells at 5 ug/mL; assay type: cell-based; conditions: Homo sapiens
# [6] = target: T-cell surface glycoprotein CD4 (Homo sapiens) (UniProt P01730); assay: Binding Intensity against CD4+ HH-leukemic cells at 5 ug/mL; assay type: cell-based
SMILES,Binding intensity [1],Binding intensity [2],Binding intensity (HH-leukemic [3]),IC50 (T-cell) [µg/mL],Binding intensity [4] [%],Binding intensity (HH-leukemic [5]) [%],Binding intensity [6] [%]
O=C1NC(=O)C(/C(=N\Nc2ccc([N+](=O)[O-])cc2[N+](=O)[O-])c2ccc(O)cc2)C(=O)N1,No change,inactive,No change,> 10,,,
O=[N+]([O-])c1ccc(NN=C(c2ccc(O)cc2)c2ccc(O)cc2)c([N+](=O)[O-])c1 [SIVIFENE],No change,,,3.2,50,20,
O=C1NC(=O)C(/C(=N\Nc2ccc([N+](=O)[O-])cc2[N+](=O)[O-])c2ccccc2)C(=O)N1,No change,inactive,No change,> 10,,,
CN1C(=O)C(C(c2ccnc3ccccc23)C2C(=O)N(C)C(=O)N(C)C2=O)C(=O)N(C)C1=O,,,,> 10,,,
C/C(=N/Nc1ccc([N+](=O)[O-])cc1)C1C(=O)NC(=O)NC1=O,No change,inactive,No change,> 10,,,
O=C(O)CC/N=C/C1C(=O)NC(=O)NC1=O,No change,inactive,No change,> 12,,,
O=C(O)CCCCC/N=C/C1C(=O)NC(=O)NC1=O,No change,inactive,No change,> 10,,,
O=C1NC(=O)C(C(c2cccnc2)C2C(=O)NC(=O)NC2=O)C(=O)N1,,,,> 10,,,
C/C(=N\Nc1ccc([N+](=O)[O-])cc1)c1ccc(O)cc1,,inactive,,4.1,,,
Nc1ccc(C(=NNc2ccc([N+](=O)[O-])cc2[N+](=O)[O-])c2ccc(N)cc2)cc1,No change,,No change,5,25,,
O=[N+]([O-])c1ccc(NN=C(c2ccc(OP(=O)(O)O)cc2)c2ccc(OP(=O)(O)O)cc2)c([N+](=O)[O-])c1,No change,inactive,No change,> 10,,,
CN1C(=O)C(C2(C3C(=O)N(C)C(=O)N(C)C3=O)C(=O)Nc3ccccc32)C(=O)N(C)C1=O,No change,inactive,No change,> 10,,,
CS(=O)(=O)Oc1ccc(C(=NNc2ccc([N+](=O)[O-])cc2[N+](=O)[O-])c2ccc(OS(C)(=O)=O)cc2)cc1,No change,inactive,No change,> 10,,,
O=C1NC(=O)C(/C=N\Nc2ccc([N+](=O)[O-])cc2)C(=O)N1,No change,inactive,No change,> 6,,,
O=[N+]([O-])c1ccccc1NN=C(c1ccc(O)cc1)c1ccc(O)cc1,No change,inactive,No change,2.7,,,
O=C(O)CCC/N=C/C1C(=O)NC(=O)NC1=O,No change,,No change,3.5,25,,
Cl.O=C1N=C2C(=Nc3ccccc32)N1c1ccc(O)cc1,No change,inactive,No change,> 10,,,
C/C(=N/Nc1ccc([N+](=O)[O-])cc1[N+](=O)[O-])C1C(=O)N(C)C(=O)N(C)C1=O,,,No change,10,,,
O=C(O)CCC/N=C(\c1ccccc1)C1C(=O)NC(=O)NC1=O,No change,inactive,No change,> 10,,,
O=[N+]([O-])c1cc([N+](=O)[O-])c(NN=C(c2ccc(O)cc2)c2ccc(O)cc2)cc1Cl,No change,inactive,No change,1.5,,,
CN1C(=O)C(/C=N\Nc2ccc([N+](=O)[O-])cc2[N+](=O)[O-])C(=O)N(C)C1=O,,,,> 8,,,
O=[N+]([O-])c1ccc(NN=C(c2ccc(NS(=O)(=O)c3ccccc3)cc2)c2ccc(NS(=O)(=O)c3ccccc3)cc2)c([N+](=O)[O-])c1,,,,6,,,
C/C(=N/Nc1ccc([N+](=O)[O-])cc1[N+](=O)[O-])C1C(=O)NC(=O)NC1=O,No change,inactive,No change,3.5,,,
O=C1NC(=O)C(C2(C3C(=O)NC(=O)NC3=O)C(=O)Nc3ccccc32)C(=O)N1,No change,inactive,No change,> 10,,,
O=C1NC(=O)C(C(c2ccnc3ccccc23)C2C(=O)NC(=O)NC2=O)C(=O)N1,No change,,No change,> 10,25,,
COc1ccc(C(=NNc2ccc([N+](=O)[O-])cc2[N+](=O)[O-])c2ccc(OC)cc2)cc1,,inactive,,> 10,,25,25
O=[N+]([O-])c1ccc(NN=C(c2ccccc2)c2ccccc2)c([N+](=O)[O-])c1,No change,inactive,No change,> 10,,,
O=[N+]([O-])c1ccc(N/N=C/c2ccc(O)cc2)cc1,,inactive,,5,,,
